Measured values taken from patent US20220362186A1, “Application of p-Hydroxyphenylpropionic Acid to Prepare Medicine for Preventing and Treating Respiratory Tract Infection” (SUN YAT-SEN UNIVERSITY, priority 2020, published 2022).
≈ marks a conversion by molar mass, not a printed value. Where two headings read alike, the source gives them in different places. Marks after values point to notes of the source that are not given here.

How the values were obtained:
[1] = test system: chronic smoked mice; assay: Chronic lung injury caused by smoking (chronic smoked mice); format: in vivo, Balb/c mice; details: for Cchord / FEV50/FVC: 8 weeks smoking; for Lymphocyte count of alveolar lavage fluid / Monocyte count of alveolar lavage fluid / Neutrophil count of alveolar lavage fluid: BALF; for IL-1β in lung tissue / IL-6 in lung tissue / IL-18 in lung tissue / LTB4 in lung tissue / TNF-α in lung tissue: lung tissue homogenate, ELISA
[2] = test system: lipopolysaccharide-induced mouse acute lung injury model; assay: Lipopolysaccharide-induced mouse acute lung injury model; format: in vivo, Balb/c mice; details: for LDH Activity in Lung / MPO Activity in Lung / MPO Content in Lung / Lung Tissue Dry-to-wet Ratio: 24 h after LPS; for Lung Tissue Dry-to-wet Ratio: mean ± SD
Method: Experimental method: the mice were acclimatized for 72 hours in an SPF animal room with constant temperature and constant humidity after purchase. The mice were randomly divided into four groups, that is, a blank control group (n=10), a model control group (n=10), a positive control medicine naringin group (n=11) and a p-hydroxyphenylpropionic acid group (n=11). The naringin group (180 mg/kg) and the p-hydroxyphenylpropionic acid group (51.6 mg/kg) were continuously subjected to intragastric administration once a day, for three days respectively; and the blank control group and the model control group were administered intragastrically with equivoluminal normal saline. The mice were anesthetized through intraperitoneal injection of 0.5 ml of pentobarbital sodium (65 mg/kg) three hours after the last intragastric administration. For the mice in the model group, the naringin group and the p-hydroxyphenylpropionic acid group, 50 μl of lipopolysaccharide 055:B5 solution (0.8 mg/ml) was slowly instilled into the nasal cavities of the mice until being completely absorbed, and a mouse acute lung injury model was established. The mice in the blank control group received nasal drops of the equivoluminal normal saline. The mice were killed by a cervical vertebra dislocation method 24 hours after the lipopolysaccharide modeling was performed, and the whole lung tissue of the mice was collected and put into a sterile centrifugal tube and was stored in liquid nitrogen within 30 seconds. After the lung tissue stored in the liquid nitrogen was placed at room temperature for 30 minutes, a wet weight was weighed. A drying vessel was dried at 80° C. for 24 hours and then was taken out and placed at room temperature for weighing. Then, the drying vessel was taken out after 1 hour of constant weight at 80° C. and was placed at room temperature for weighing. After the weight of the drying vessel was constant, the lung tissue was placed in the drying vessel, was dried at 80° C. for 48 hours and taken out, and was placed at room temperature for weighing. Then, the drying vessel was taken out after 1 hour of constant weight at 80° C. and was placed at room temperature for weighing. […] [formula] [formula] 24 hours after the lipopolysaccharide modeling was performed, the mice were killed and about 400 mg of lung tissue was collected. 1 ml of PBS-10% Triton was added into the lung tissue to serve as a lysis solution for homogenization. After the protein concentration was measured by a BCA protein concentration kit, the sample loading quantity was adjusted to 50 μg of total protein and 100 μl of total volume, and the content of myeloperoxidase (MPO), the activity of the MPO and the activity of lactic dehydrogenase (LDH) in the lung tissue sample were measured by kits. The data in the table are presented as mean±standard deviation, and analysis of difference among multiple groups is realized by a one-way analysis of variance Beforroni method and SPSS 22.0 software.

[3] = test system: Klebsiella pneumoniae; assay: Antibacterial experiment in vitro, broth microdilution (CLSI); format: cell-based; details: 20 h, 20-hour cultivation at 37° C.
[4] = test system: Staphylococcus aureus; assay: as above; format: cell-based; details: 20-hour cultivation at 37° C.
[5] = 180 mg/kg intragastric once a day for three days
[6] = 51.6 mg/kg intragastric once a day for three days
[7] = high-dose 60 mg/kg intragastric

O=C(Nc1c(Cl)cncc1Cl)c1ccc(OC(F)F)c(OCC2CC2)c1 [Roflumilast, roflumilast, reference compound]
Cchord ([1]; 5 mg/kg intragastric): 0.042 ± 0.0054 mL/cm H2O | FEV50/FVC ([1]; 5 mg/kg intragastric): 0.367 ± 0.042 | Lymphocyte count of alveolar lavage fluid ([1]; 5 mg/kg intragastric): 0.914 ± 0.227## 10^5/mL | Monocyte count of alveolar lavage fluid ([1]; 5 mg/kg intragastric): 3.014 ± 0.319## 10^5/mL | Neutrophil count of alveolar lavage fluid ([1]; 5 mg/kg intragastric): 0.729 ± 0.180## 10^5/mL | IL-1β in lung tissue ([1]; 5 mg/kg intragastric): 34.02 ± 7.098 pg/mL | IL-6 in lung tissue ([1]; 5 mg/kg intragastric): 963.2 ± 188.8 pg/mL | IL-18 in lung tissue ([1]; 5 mg/kg intragastric): 143.4 ± 18.34 pg/mL | LTB4 in lung tissue ([1]; 5 mg/kg intragastric): 6809 ± 670.8 pg/mL | TNF-α in lung tissue ([1]; 5 mg/kg intragastric): 102.4 ± 17.34 pg/mL

C[C@@H]1O[C@@H](O[C@H]2[C@H](Oc3cc(O)c4c(c3)O[C@H](c3ccc(O)cc3)CC4=O)O[C@H](CO)[C@@H](O)[C@@H]2O)[C@H](O)[C@H](O)[C@H]1O [Naringin, naringin]
LDH Activity in Lung [2, 5]: 310.93 ± 27.77 units/gprot | MPO Activity in Lung [2, 5]: 1.913 ± 0.262 units/gprot | MPO Content in Lung [2, 5]: 415.85 ± 52.15 pg/mL | Lung Tissue Dry-to-wet Ratio [2, 5]: 5.15 ± 0.47 | Effect on lung inflammation, pulmonary edema, neutrophil infiltration and cell necrosis in ALI (in words) ([2]; 180 mg/kg intragastric, P<0.01 vs model control): effectively inhibit the progress of lung inflammation in the ALI and alleviate pulmonary edema, local neutrophil infiltration and cell necrosis

O=C(O)CCc1ccc(O)cc1 [HPPA, p-Hydroxyphenylpropionic acid]
MIC ([3]; strain K11): 64 mg/L (≈ 385 µM) | MIC ([3]; Klebsiella pneumoniae, strain K1): 128 mg/L (≈ 770 µM) | MIC ([3]; Klebsiella pneumoniae, strain K2): 128 mg/L (≈ 770 µM) | MIC ([3]; Klebsiella pneumoniae, strain K3): 128 mg/L (≈ 770 µM) | MIC ([3]; Klebsiella pneumoniae, strain K4): 128 mg/L (≈ 770 µM) | MIC ([3]; Klebsiella pneumoniae, strain K5): 128 mg/L (≈ 770 µM) | MIC ([3]; Klebsiella pneumoniae, strain K6): 64 mg/L (≈ 385 µM) | MIC ([3]; Klebsiella pneumoniae, strain K7): 128 mg/L (≈ 770 µM) | MIC ([3]; Klebsiella pneumoniae, strain K8): 64 mg/L (≈ 385 µM) | MIC ([3]; Klebsiella pneumoniae, strain K9): 64 mg/L (≈ 385 µM) | MIC ([3]; Klebsiella pneumoniae, strain K10): 64 mg/L (≈ 385 µM) | MIC ([3]; Klebsiella pneumoniae, strain K12): 64 mg/L (≈ 385 µM) | LDH Activity in Lung [2, 6]: 271.19 ± 27.70 ## units/gprot | MPO Activity in Lung [2, 6]: 1.756 ± 0.190 ## units/gprot | MPO Content in Lung [2, 6]: 324.09 ± 36.33 ## pg/ml | Lung Tissue Dry-to-wet Ratio [2, 6]: 4.90 ± 0.52 | Cchord [1, 7]: 0.041 ± 0.0029 mL/cm H2O | FEV50/FVC [1, 7]: 0.333 ± 0.040 | Lymphocyte count of alveolar lavage fluid [1, 7]: 1.014 ± 0.107# 10^5/mL | Monocyte count of alveolar lavage fluid [1, 7]: 3.100 ± 0.554## 10^5/mL | Neutrophil count of alveolar lavage fluid [1, 7]: 0.743 ± 0.190## 10^5/mL | IL-1β in lung tissue [1, 7]: 35.27 ± 6.509 pg/mL | IL-6 in lung tissue [1, 7]: 1027 ± 90.56 pg/mL | IL-18 in lung tissue [1, 7]: 157.4 ± 9.098 pg/mL | LTB4 in lung tissue [1, 7]: 7241 ± 1024 pg/mL | TNF-α in lung tissue [1, 7]: 92.45 ± 13.24 pg/mL | Cchord ([1]; low-dose 15 mg/kg intragastric): 0.0448 ± 0.0041 mL/cm H2O | FEV50/FVC ([1]; low-dose 15 mg/kg intragastric): 0.360 ± 0.039 | Lymphocyte count of alveolar lavage fluid ([1]; low-dose 15 mg/kg intragastric): 1.317 ± 0.117 10^5/mL | Monocyte count of alveolar lavage fluid ([1]; low-dose 15 mg/kg intragastric): 3.871 ± 0.544 10^5/mL | Neutrophil count of alveolar lavage fluid ([1]; low-dose 15 mg/kg intragastric): 1.129 ± 0.287 10^5/mL | IL-1β in lung tissue ([1]; low-dose 15 mg/kg intragastric): 47.18 ± 6.822 pg/mL | IL-6 in lung tissue ([1]; low-dose 15 mg/kg intragastric): 1483 ± 300.3 pg/mL | IL-18 in lung tissue ([1]; low-dose 15 mg/kg intragastric): 180.1 ± 6.667 pg/mL | LTB4 in lung tissue ([1]; low-dose 15 mg/kg intragastric): 8344 ± 1356#^ pg/mL | TNF-α in lung tissue ([1]; low-dose 15 mg/kg intragastric): 126.3 ± 10.34 pg/mL | MIC ([4]; Staphylococcus aureus, strain S4, read-out: MIC): 64 mg/L (≈ 385 µM) | MIC ([4]; strain S1): 64 mg/L (≈ 385 µM) | MIC ([4]; strain S2): 64 mg/L (≈ 385 µM) | MIC ([4]; strain S3): 64 mg/L (≈ 385 µM) | MIC ([4]; strain S5): 64 mg/L (≈ 385 µM) | MIC ([4]; strain S6): 64 mg/L (≈ 385 µM) | MIC ([4]; strain S7): 64 mg/L (≈ 385 µM) | MIC ([4]; strain S8): 64 mg/L (≈ 385 µM) | MIC ([4]; strain S9): 64 mg/L (≈ 385 µM) | MIC ([4]; strain S10): 64 mg/L (≈ 385 µM)
